Experimental data reported in patent publication US20190209650A1, “METHOD TO IMPROVE THE EFFECTIVENESS OF ANTI-CANCER THERAPIES BY EXPOSING CANCER CELLS TO AN INFLAMMATORY STIMULUS PRIOR TO TREATMENT” (priority 2016, published 2019).

Test system: SW620 colorectal cancer cell line
Assay: Flow cytometry of EpCAM positive cells and cancer stem cell (CD44+CD133-) subpopulation after incubation with cytokines
Format: cell-based, human
Details: for % Gated, R4 (CD44FITC, CD133 PE) / % Total, R4 (CD44FITC, CD133 PE): population R4 & R14 & R2 & R1; for % Gated, R5 (CD44FITC, CD133 PE) / % Total, R5 (CD44FITC, CD133 PE): population R5 & R14 & R2 & R1; for % Gated, R6 (CD44FITC, CD133 PE) / % Total, R6 (CD44FITC, CD133 PE): population R6 & R14 & R2 & R1; for % Gated, R7 Cancer Stem Cell (CSC) (CD44+CD133-) / % Total, R7 Cancer Stem Cell (CSC) (CD44+CD133-): population R7 & R14 & R2 & R1; for % Gated, R8 (CD44FITC, EpCAMefluor710) / % Total, R8 (CD44FITC, EpCAMefluor710): population R8 & R14 & R2 & R1; for % Gated, R9 EpCAM positive Cells (CD44FITC, EpCAMefluor710) / % Total, R9 EpCAM positive Cells (CD44FITC, EpCAMefluor710): population R9 & R14 & R2 & R1; for % Gated, R10 EpCAM positive Cells (CD44FITC, EpCAMefluor710) / % Total, R10 EpCAM positive Cells (CD44FITC, EpCAMefluor710): population R10 & R14 & R2 & R1; for % Gated, R11 (CD44FITC, EpCAMefluor710) / % Total, R11 (CD44FITC, EpCAMefluor710): population R11 & R14 & R2 & R1
Protocol: This number returned to near baseline 21% at 48 hours. […] This change was transient, occurring within 24 hours and rapidly returning to baseline.
The data from the scatter plots of FIGS. 1A-1H, 2A-2H, and 3A-3H are reproduced below in Tables 1-3.
Based on the above data of potentiating the effectiveness of chemotherapy by exposing cancer cells to specific cytokines such as HGF and or Il-6 within a time limited fashion, the mechanism behind this ability to sensitize cancer cells may not simply be triggering cellular proliferation. Specific cytokine exposures can transiently cause a cancer cell population to differentiate away from a more stem cell enriched, mesenchymal phenotype towards a more differentiated, epithelial cell population more sensitive to the effects of anti-cancer therapies (see Tables 1-3).
In particular, exposure to a control population of SW620 colorectal cancer cell line to HGF at a concentration of 10 ng per ml for 24 hours caused the control putative stem cell population (CD44+/CD133−) to drop from 33% at baseline (see Table 1, R7 region, CD 44 positive/CD133 negative) to 1% (see Table 2, R7, region CD 44 positive/CD133 negative). This drop was transient, as exposure to the same cell line for 48 hours of HGF at 10 ng per ml transitioned the phenotypic distribution back towards a stem cell enriched phenotype with 23% putative stem cells (see Table 3, R7 region, CD 44 positive/CD133 negative).

PDGF Beta: Platelet derived growth factor BB
% Gated, R4 (CD44FITC, CD133 PE) (0 hour incubation): 49.7%
% Total, R4 (CD44FITC, CD133 PE) (0 hour incubation): 46.5%
% Gated, R5 (CD44FITC, CD133 PE) (0 hour incubation): 2.45%
% Total, R5 (CD44FITC, CD133 PE) (0 hour incubation): 2.29%
% Gated, R6 (CD44FITC, CD133 PE) (0 hour incubation): 10.7%
% Total, R6 (CD44FITC, CD133 PE) (0 hour incubation): 9.97%
% Gated, R7 Cancer Stem Cell (CSC) (CD44+CD133-) (0 hour incubation): 37.3%
% Total, R7 Cancer Stem Cell (CSC) (CD44+CD133-) (0 hour incubation): 34.9%
% Gated, R8 (CD44FITC, EpCAMefluor710) (0 hour incubation): 4.94%
% Total, R8 (CD44FITC, EpCAMefluor710) (0 hour incubation): 4.62%
% Gated, R9 EpCAM positive Cells (CD44FITC, EpCAMefluor710) (0 hour incubation): 53.5%
% Total, R9 EpCAM positive Cells (CD44FITC, EpCAMefluor710) (0 hour incubation): 50%
% Gated, R10 EpCAM positive Cells (CD44FITC, EpCAMefluor710) (0 hour incubation): 38.8%
% Total, R10 EpCAM positive Cells (CD44FITC, EpCAMefluor710) (0 hour incubation): 36.3%
% Gated, R11 (CD44FITC, EpCAMefluor710) (0 hour incubation): 2.33%
% Total, R11 (CD44FITC, EpCAMefluor710) (0 hour incubation): 2.18%
% Gated, R4 (CD44FITC, CD133 PE) (24 h incubation): 36.2%
% Total, R4 (CD44FITC, CD133 PE) (24 h incubation): 32.4%
% Gated, R5 (CD44FITC, CD133 PE) (24 h incubation): 8.6%
% Total, R5 (CD44FITC, CD133 PE) (24 h incubation): 7.7%
% Gated, R6 (CD44FITC, CD133 PE) (24 h incubation): 32.2%
% Total, R6 (CD44FITC, CD133 PE) (24 h incubation): 28.8%
% Gated, R7 Cancer Stem Cell (CSC) (CD44+CD133-) (24 h incubation): 22.6%
% Total, R7 Cancer Stem Cell (CSC) (CD44+CD133-) (24 h incubation): 20.3%
% Gated, R8 (CD44FITC, EpCAMefluor710) (24 h incubation): 4.94%
% Total, R8 (CD44FITC, EpCAMefluor710) (24 h incubation): 4.42%
% Gated, R9 EpCAM positive Cells (CD44FITC, EpCAMefluor710) (24 h incubation): 45.3%
% Total, R9 EpCAM positive Cells (CD44FITC, EpCAMefluor710) (24 h incubation): 40.6%
% Gated, R10 EpCAM positive Cells (CD44FITC, EpCAMefluor710) (24 h incubation): 47.4%
% Total, R10 EpCAM positive Cells (CD44FITC, EpCAMefluor710) (24 h incubation): 42.5%
% Gated, R11 (CD44FITC, EpCAMefluor710) (24 h incubation): 3.22%
% Total, R11 (CD44FITC, EpCAMefluor710) (24 h incubation): 2.88%
% Gated, R4 (CD44FITC, CD133 PE) (48 h incubation): 40.1%
% Total, R4 (CD44FITC, CD133 PE) (48 h incubation): 27.6%
% Gated, R5 (CD44FITC, CD133 PE) (48 h incubation): 7.5%
% Total, R5 (CD44FITC, CD133 PE) (48 h incubation): 5.16%
% Gated, R6 (CD44FITC, CD133 PE) (48 h incubation): 27.4%
% Total, R6 (CD44FITC, CD133 PE) (48 h incubation): 18.9%
% Gated, R7 Cancer Stem Cell (CSC) (CD44+CD133-) (48 h incubation): 25.6%
% Total, R7 Cancer Stem Cell (CSC) (CD44+CD133-) (48 h incubation): 17.6%
% Gated, R8 (CD44FITC, EpCAMefluor710) (48 h incubation): 24.4%
% Total, R8 (CD44FITC, EpCAMefluor710) (48 h incubation): 16.8%
% Gated, R9 EpCAM positive Cells (CD44FITC, EpCAMefluor710) (48 h incubation): 31.8%
% Total, R9 EpCAM positive Cells (CD44FITC, EpCAMefluor710) (48 h incubation): 21.9%
% Gated, R10 EpCAM positive Cells (CD44FITC, EpCAMefluor710) (48 h incubation): 23.5%
% Total, R10 EpCAM positive Cells (CD44FITC, EpCAMefluor710) (48 h incubation): 16.2%
% Gated, R11 (CD44FITC, EpCAMefluor710) (48 h incubation): 21.1%
% Total, R11 (CD44FITC, EpCAMefluor710) (48 h incubation): 14.5%

IL6: Interleukin 6, cytokine
% Gated, R4 (CD44FITC, CD133 PE) (0 hour incubation): 48.6%
% Total, R4 (CD44FITC, CD133 PE) (0 hour incubation): 45.1%
% Gated, R5 (CD44FITC, CD133 PE) (0 hour incubation): 3.48%
% Total, R5 (CD44FITC, CD133 PE) (0 hour incubation): 3.23%
% Gated, R6 (CD44FITC, CD133 PE) (0 hour incubation): 13.9%
% Total, R6 (CD44FITC, CD133 PE) (0 hour incubation): 12.9%
% Gated, R7 Cancer Stem Cell (CSC) (CD44+CD133-) (0 hour incubation): 34.2%
% Total, R7 Cancer Stem Cell (CSC) (CD44+CD133-) (0 hour incubation): 31.7%
% Gated, R8 (CD44FITC, EpCAMefluor710) (0 hour incubation): 5.15%
% Total, R8 (CD44FITC, EpCAMefluor710) (0 hour incubation): 4.78%
% Gated, R9 EpCAM positive Cells (CD44FITC, EpCAMefluor710) (0 hour incubation): 53%
% Total, R9 EpCAM positive Cells (CD44FITC, EpCAMefluor710) (0 hour incubation): 49.2%
% Gated, R10 EpCAM positive Cells (CD44FITC, EpCAMefluor710) (0 hour incubation): 39%
% Total, R10 EpCAM positive Cells (CD44FITC, EpCAMefluor710) (0 hour incubation): 36.1%
% Gated, R11 (CD44FITC, EpCAMefluor710) (0 hour incubation): 2.42%
% Total, R11 (CD44FITC, EpCAMefluor710) (0 hour incubation): 2.24%
% Gated, R4 (CD44FITC, CD133 PE) (24 h incubation): 41.1%
% Total, R4 (CD44FITC, CD133 PE) (24 h incubation): 33.4%
% Gated, R5 (CD44FITC, CD133 PE) (24 h incubation): 7.69%
% Total, R5 (CD44FITC, CD133 PE) (24 h incubation): 6.27%
% Gated, R6 (CD44FITC, CD133 PE) (24 h incubation): 28.8%
% Total, R6 (CD44FITC, CD133 PE) (24 h incubation): 23.4%
% Gated, R7 Cancer Stem Cell (CSC) (CD44+CD133-) (24 h incubation): 22.3%
% Total, R7 Cancer Stem Cell (CSC) (CD44+CD133-) (24 h incubation): 18.1%
% Gated, R8 (CD44FITC, EpCAMefluor710) (24 h incubation): 5.35%
% Total, R8 (CD44FITC, EpCAMefluor710) (24 h incubation): 4.36%
% Gated, R9 EpCAM positive Cells (CD44FITC, EpCAMefluor710) (24 h incubation): 48.4%
% Total, R9 EpCAM positive Cells (CD44FITC, EpCAMefluor710) (24 h incubation): 39.4%
% Gated, R10 EpCAM positive Cells (CD44FITC, EpCAMefluor710) (24 h incubation): 45.2%
% Total, R10 EpCAM positive Cells (CD44FITC, EpCAMefluor710) (24 h incubation): 36.8%
% Gated, R11 (CD44FITC, EpCAMefluor710) (24 h incubation): 1.94%
% Total, R11 (CD44FITC, EpCAMefluor710) (24 h incubation): 1.58%
% Gated, R4 (CD44FITC, CD133 PE) (48 h incubation): 37.5%
% Total, R4 (CD44FITC, CD133 PE) (48 h incubation): 33.7%
% Gated, R5 (CD44FITC, CD133 PE) (48 h incubation): 7.38%
% Total, R5 (CD44FITC, CD133 PE) (48 h incubation): 6.64%
% Gated, R6 (CD44FITC, CD133 PE) (48 h incubation): 30.7%
% Total, R6 (CD44FITC, CD133 PE) (48 h incubation): 27.6%
% Gated, R7 Cancer Stem Cell (CSC) (CD44+CD133-) (48 h incubation): 25.1%
% Total, R7 Cancer Stem Cell (CSC) (CD44+CD133-) (48 h incubation): 22.6%
% Gated, R8 (CD44FITC, EpCAMefluor710) (48 h incubation): 26%
% Total, R8 (CD44FITC, EpCAMefluor710) (48 h incubation): 23.4%
% Gated, R9 EpCAM positive Cells (CD44FITC, EpCAMefluor710) (48 h incubation): 27.6%
% Total, R9 EpCAM positive Cells (CD44FITC, EpCAMefluor710) (48 h incubation): 24.8%
% Gated, R10 EpCAM positive Cells (CD44FITC, EpCAMefluor710) (48 h incubation): 26%
% Total, R10 EpCAM positive Cells (CD44FITC, EpCAMefluor710) (48 h incubation): 23.3%
% Gated, R11 (CD44FITC, EpCAMefluor710) (48 h incubation): 21.4%
% Total, R11 (CD44FITC, EpCAMefluor710) (48 h incubation): 19.3%
